# Article PMC6222927, “Aminobenzosuberone Scaffold as a Modular Chemical Tool for the Inhibition of Therapeutically Relevant M1 Aminopeptidases” (Molecules : A Journal of Synthetic Chemistry and Natural …, 2018)
# Tests used:
# [1] = target: human leukotriene A4 hydrolase (rHsLTA4H); design: method as in PMID 21843945; conditions: ref 58; cited from earlier work
# [2] = target: T1, human Leucyl-cystinyl aminopeptidase (rHsIRAP) (Homo sapiens, UniProt Q9UIQ6); test: rHsIRAP inhibition, L-AMC fluorigenic substrate; assay type: biochemical; conditions: 50 µM L-AMC; read-out: IC50 rHsIRAP
# T1 construct: made in house; host or cells: Hi5 insect cells (baculovirus produced in sf9)
# Experimental: The enzymatic activity of HsERAP1, HsERAP2 and HsIRAP was determined by following the time-dependent increase in fluorescence at 460 nm (excitation: 380 nm) of the fluorigenic substrates L-Leucine-7-amido-4-methyl coumarin (L-AMC; Sigma, Darmstatd, Germany) for HsERAP1 and HsIRAP and L-arginyl-7-amido-4-methyl coumarin (R-AMC; Sigma) for HsERAP2. […]. The reaction was followed for 10 min at room temperature and the remaining enzymatic activity was calculated by measuring the slope of the time course. […]
# [3] = target: T2, human endoplasmic reticulum aminopeptidase 2 (rHsERAP2) (Homo sapiens, UniProt Q6P179); test: rHsERAP2 inhibition, R-AMC fluorigenic substrate; assay type: biochemical; conditions: 50 µM R-AMC
# T2 construct: made in house; host or cells: Hi5 insect cells (baculovirus produced in sf9)
# Experimental: (§1) The enzymatic activity of HsERAP1, HsERAP2 and HsIRAP was determined by following the time-dependent increase in fluorescence at 460 nm (excitation: 380 nm) of the fluorigenic substrates L-Leucine-7-amido-4-methyl coumarin (L-AMC; Sigma, Darmstatd, Germany) for HsERAP1 and HsIRAP and L-arginyl-7-amido-4-methyl coumarin (R-AMC; Sigma) for HsERAP2. […] The reaction was followed for 10 min at room temperature and the remaining enzymatic activity was calculated by measuring the slope of the time course.
# [4] = target: T3, human endoplasmic reticulum aminopeptidase 1 (rHsERAP1) (Homo sapiens, UniProt Q9NZ08); test: rHsERAP1 inhibition, L-AMC fluorigenic substrate; assay type: biochemical; conditions: 50 µM L-AMC
# T3 construct: made in house; host or cells: Hi5 insect cells (baculovirus produced in sf9)
# Experimental: as §1
# P. falciparum rPfAM17 = target: T4, P. falciparum rPfAM17 (Plasmodium falciparum, UniProt Q8IL11); test: rPfAM17 inhibition, Leu-pNA substrate, Dixon plots; assay type: biochemical
# T4 construct: made in house; host or cells: Escherichia coli Rosetta 2 (DE3)
# T4 sequence (Q8IL11 1-605): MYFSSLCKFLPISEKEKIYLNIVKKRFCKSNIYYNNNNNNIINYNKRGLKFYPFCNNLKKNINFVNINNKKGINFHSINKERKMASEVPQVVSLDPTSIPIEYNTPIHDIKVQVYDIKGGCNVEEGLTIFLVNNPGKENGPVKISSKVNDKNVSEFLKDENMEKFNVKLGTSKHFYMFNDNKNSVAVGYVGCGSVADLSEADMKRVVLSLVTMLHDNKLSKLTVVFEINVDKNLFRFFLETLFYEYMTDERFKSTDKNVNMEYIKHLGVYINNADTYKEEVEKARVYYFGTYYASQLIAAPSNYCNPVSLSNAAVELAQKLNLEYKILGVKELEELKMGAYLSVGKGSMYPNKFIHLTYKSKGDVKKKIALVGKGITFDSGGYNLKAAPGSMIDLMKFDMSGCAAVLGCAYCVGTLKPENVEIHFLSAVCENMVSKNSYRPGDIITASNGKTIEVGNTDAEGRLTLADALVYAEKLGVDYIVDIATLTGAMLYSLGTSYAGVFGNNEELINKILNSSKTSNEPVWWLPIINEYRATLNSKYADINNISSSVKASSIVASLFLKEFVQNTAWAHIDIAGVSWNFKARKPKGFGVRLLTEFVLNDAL
# Experimental: Tests were carried out on HP/Agilent UV-Visible diode array spectrophotometer 8453 (HP/Agilent, Santa Clara, CA, USA), at 30 °C in Tris HCl 50 mM pH 7.4 for rPfAM1 and pH 8 for rPfAM17, with a final DMSO concentration of 1%. […]. […] Initial velocities were measured with increasing concentrations of inhibitors and Ki values were determined by Dixon plots in triplicate.
# P. falciparum rPfAM1 = target: T5, P. falciparum rPfAM1 (Plasmodium falciparum, UniProt O96935); test: biochemical; assay type: biochemical
# T5 construct: made in house; host or cells: Escherichia coli Rosetta 2 (DE3)
# T5 sequence (O96935 1-1085): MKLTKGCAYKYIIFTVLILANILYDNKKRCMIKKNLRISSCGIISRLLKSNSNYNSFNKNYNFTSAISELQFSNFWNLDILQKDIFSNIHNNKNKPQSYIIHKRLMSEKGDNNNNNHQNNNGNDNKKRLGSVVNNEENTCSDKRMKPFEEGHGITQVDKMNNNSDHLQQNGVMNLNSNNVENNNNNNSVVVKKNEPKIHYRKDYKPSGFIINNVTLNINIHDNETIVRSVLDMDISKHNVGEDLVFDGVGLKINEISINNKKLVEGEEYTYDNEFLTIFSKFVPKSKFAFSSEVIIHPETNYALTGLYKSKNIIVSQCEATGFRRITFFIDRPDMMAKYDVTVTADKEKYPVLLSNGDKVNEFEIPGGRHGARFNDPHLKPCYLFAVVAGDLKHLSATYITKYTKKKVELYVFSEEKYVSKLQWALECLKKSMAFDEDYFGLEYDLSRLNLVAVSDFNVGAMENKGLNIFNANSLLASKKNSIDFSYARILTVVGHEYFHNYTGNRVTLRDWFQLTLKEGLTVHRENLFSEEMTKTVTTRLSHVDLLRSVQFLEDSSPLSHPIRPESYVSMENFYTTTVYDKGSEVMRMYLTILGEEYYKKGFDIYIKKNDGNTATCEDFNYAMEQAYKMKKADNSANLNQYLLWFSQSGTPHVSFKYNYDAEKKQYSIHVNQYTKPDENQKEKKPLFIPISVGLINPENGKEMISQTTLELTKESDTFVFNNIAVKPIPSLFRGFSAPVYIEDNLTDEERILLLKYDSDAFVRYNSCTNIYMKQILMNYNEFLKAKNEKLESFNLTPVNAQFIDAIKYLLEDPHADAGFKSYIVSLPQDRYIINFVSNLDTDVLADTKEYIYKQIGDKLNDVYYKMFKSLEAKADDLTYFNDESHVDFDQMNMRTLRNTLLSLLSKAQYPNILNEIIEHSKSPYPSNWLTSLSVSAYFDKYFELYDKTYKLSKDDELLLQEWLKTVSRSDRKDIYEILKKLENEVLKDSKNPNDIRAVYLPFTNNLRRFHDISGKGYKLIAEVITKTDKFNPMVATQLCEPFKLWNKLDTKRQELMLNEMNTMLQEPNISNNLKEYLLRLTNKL
# Experimental: Initial velocities were measured with increasing concentrations of inhibitors and Ki values were determined by Dixon plots in triplicate.
# [5] = Octanol/water partition coefficient (logD7.4) by reversed-phase HPLC; conditions: pH 7.4
# Experimental: The flow was 0.9 mL/min. The aminobenzosuberone derivatives were dissolved at 0.4 µM in methanol. The standards were also dissolved in methanol. Column void volume was estimated from the retention time of uracil, which was included as a non-retained internal reference with each injection.
# T3 sequence (Q9NZ08 whole entry): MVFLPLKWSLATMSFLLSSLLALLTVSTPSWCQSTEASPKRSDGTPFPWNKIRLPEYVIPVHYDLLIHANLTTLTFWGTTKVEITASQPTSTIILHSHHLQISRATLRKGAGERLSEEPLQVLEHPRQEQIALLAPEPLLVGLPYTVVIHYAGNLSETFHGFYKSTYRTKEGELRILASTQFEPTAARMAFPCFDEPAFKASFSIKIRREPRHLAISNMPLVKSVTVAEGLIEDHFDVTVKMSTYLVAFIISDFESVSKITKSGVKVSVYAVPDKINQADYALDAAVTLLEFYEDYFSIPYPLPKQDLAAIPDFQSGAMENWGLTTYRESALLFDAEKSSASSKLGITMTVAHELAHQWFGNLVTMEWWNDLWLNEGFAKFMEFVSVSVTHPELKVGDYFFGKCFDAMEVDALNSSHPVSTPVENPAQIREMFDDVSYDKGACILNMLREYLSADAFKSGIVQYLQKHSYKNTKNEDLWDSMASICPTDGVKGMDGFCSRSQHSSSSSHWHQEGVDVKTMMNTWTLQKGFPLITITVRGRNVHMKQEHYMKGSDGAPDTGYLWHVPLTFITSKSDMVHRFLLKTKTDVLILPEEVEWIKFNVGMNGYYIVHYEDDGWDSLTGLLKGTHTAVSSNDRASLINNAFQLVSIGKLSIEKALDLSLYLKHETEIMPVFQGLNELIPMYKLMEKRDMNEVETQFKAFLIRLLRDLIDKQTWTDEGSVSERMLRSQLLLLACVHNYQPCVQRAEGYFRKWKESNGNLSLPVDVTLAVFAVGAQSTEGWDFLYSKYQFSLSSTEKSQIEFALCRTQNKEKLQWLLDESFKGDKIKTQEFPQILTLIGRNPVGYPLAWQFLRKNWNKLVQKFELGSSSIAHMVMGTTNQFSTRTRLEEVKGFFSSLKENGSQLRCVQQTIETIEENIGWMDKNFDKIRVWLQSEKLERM
# T2 sequence (Q6P179 whole entry): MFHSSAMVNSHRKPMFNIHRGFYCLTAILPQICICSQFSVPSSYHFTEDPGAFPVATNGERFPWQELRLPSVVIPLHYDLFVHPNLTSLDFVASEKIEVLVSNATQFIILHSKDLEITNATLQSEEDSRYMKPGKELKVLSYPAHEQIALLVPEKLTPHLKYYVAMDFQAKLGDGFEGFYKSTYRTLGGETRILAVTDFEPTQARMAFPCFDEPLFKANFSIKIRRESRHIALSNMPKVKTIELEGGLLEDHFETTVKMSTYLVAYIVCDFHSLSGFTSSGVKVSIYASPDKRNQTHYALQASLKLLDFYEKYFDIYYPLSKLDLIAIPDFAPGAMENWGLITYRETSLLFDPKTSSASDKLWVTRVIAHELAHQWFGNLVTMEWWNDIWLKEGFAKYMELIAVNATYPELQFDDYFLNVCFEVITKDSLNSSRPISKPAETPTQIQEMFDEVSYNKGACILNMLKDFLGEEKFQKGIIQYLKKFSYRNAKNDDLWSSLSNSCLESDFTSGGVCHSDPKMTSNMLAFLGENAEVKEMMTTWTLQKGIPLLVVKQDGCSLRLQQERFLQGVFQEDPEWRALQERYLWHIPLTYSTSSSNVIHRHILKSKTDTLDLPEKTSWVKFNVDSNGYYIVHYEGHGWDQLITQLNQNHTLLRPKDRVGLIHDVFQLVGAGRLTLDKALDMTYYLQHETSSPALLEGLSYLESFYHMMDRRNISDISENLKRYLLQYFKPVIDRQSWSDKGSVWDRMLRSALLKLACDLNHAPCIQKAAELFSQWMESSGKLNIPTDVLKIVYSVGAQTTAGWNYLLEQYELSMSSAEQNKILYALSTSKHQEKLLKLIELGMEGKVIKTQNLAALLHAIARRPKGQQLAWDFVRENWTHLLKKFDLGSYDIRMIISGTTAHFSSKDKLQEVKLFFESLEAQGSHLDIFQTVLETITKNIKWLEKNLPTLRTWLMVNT
# T1 sequence (Q9UIQ6 155-1025 limits assumed): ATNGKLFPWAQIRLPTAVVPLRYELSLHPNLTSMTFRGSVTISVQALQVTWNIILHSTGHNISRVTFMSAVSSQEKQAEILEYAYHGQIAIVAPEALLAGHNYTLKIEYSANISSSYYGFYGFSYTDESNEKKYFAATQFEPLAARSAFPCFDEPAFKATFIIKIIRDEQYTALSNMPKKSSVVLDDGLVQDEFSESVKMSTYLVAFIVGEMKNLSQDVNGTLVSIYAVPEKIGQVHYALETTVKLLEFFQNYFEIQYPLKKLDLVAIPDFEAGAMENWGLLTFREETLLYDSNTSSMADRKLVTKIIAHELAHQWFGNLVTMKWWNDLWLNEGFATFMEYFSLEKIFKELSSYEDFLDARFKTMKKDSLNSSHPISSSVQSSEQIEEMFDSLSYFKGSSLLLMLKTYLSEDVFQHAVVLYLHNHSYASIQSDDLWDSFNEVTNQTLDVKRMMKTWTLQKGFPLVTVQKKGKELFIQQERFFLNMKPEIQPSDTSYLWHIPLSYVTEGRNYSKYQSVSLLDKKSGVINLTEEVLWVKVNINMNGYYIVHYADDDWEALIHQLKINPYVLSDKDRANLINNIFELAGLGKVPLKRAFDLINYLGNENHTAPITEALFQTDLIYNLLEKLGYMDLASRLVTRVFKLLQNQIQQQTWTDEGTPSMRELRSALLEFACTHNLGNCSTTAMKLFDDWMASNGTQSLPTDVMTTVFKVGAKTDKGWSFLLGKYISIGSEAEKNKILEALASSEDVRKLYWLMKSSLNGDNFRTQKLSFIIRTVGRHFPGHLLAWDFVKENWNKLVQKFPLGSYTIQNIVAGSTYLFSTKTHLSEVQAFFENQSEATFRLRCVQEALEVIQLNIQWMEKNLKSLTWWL
smiles,measurement,setting,value
NC1CCc2c(Br)cccc2CC1=O (stereo not shown) [21e],Ki,[1],> 100 µM
same,IC50,[2],2.6 ± 0.2 µM
same,IC50,[3],104 ± 7 µM
same,IC50,[4],56 ± 7 µM
same,Ki,P. falciparum rPfAM17,> 100 µM
same,Ki,P. falciparum rPfAM1,1 ± 0.04 µM
same,chromatographic logD,[5],1.41
